{
  "source": "patent US20240009170A1",
  "about": "“INHIBITION OF GLYCOGEN SYNTHASE KINASE-3 (GSK-3)” (Brown University, priority 2020, published 2024)",
  "key": {"SW480 tumor cells": {"test_system": "SW480 tumor cells", "experiment": "Immune cell co-culture of TALL-104 T cells and SW480 tumor cells", "format": "cell-based, Human", "conditions": "for dead cells out of total cells, average, after normalization: 1:1 TALL-104 to SW480", "description": "Immune cell co-culture experiments. Co-culture experiments were conducted with GFP+ SW480 or HCT-116 colorectal cancer cells and either NK-92 natural killer cells or TALL-104 T cells in a 48-well plate, in the presence or absence of 9-ING-41. HCT-116 cells were labeled using CellTracker™ Green CMFDA (5-chloromethylfluorescein diacetate), immune cells (NK-92, TALL-104) were labeled using CellTracker™ Blue CMAC Dye (7-amino-4-chloromethylcoumarin), and ethidium homodimer-1 (EthD-1) was used as a marker of cell death (Invitrogen, Thermo Fisher Scientific, Waltham, MA, USA).\nCo-culture experiments were conducted with GFP+ SW480 colorectal cancer cells and either NK-92 natural killer cells or TALL-104 T cells at various effector/target ratios in a 48-well plate, in the presence or absence of 9-ING-41.\nThe compound 9-lNG-41 boosts immune cell-mediated tumor cell-killing in a co-culture model. A co-culture of GFP+ SW480 tumor cells and Green CMFDA-labeled TALL-104 T cells treated with 9-ING-41 lead to an increase in tumor cell death after twenty-four hours. […] In the co-culture with tumor and immune cells only, in the absence of drug, the inventors noted that the percentage of dead cells out of total cells was approximately 27%, after normalization. Normalization was carried out by subtracting the percentage of cell death due to drug or vehicle control (DMSO) only from the percentage of dead cells observed in the co-culture treated with drug.\nPre-treatment with 9-ING-41 sensitizes SW480 tumor cells to immune cell-mediated cell killing. To determine if the increased amount of immune-cell mediated tumor cell-killing was due to the drug's impact on the tumor cells or the immune cells, the inventors next pre-treated tumor cells with 9-ING-41 for twenty-four hours before the co-culture with immune cells began. Pre-treatment with 9-ING-41 sensitized SW480 tumor cells to TALL-104 cell-mediated cell killing. The raw percentages of cell death were used to normalize the data. The inventors confirmed these co-culture results using healthy, CD8+ T cells instead of TALL-104 cells."}, "[1]": {"test_system": "HT-29 colorectal cancer cells", "experiment": "Western blot analysis, HT-29", "format": "cell-based, Human", "description": "Western blot analysis. Cells were plated in a 6-well plate and incubated overnight before the spent media was replaced with drugged media. Drug treatment lasted for indicated durations. Protein was extracted using radioimmunoprecipitation (RIPA) assay buffer (Cat #R0278, Sigma-Aldrich, St. Louis, MO) containing cOmplete™ Mini, EDTA-free Protease Inhibitor Cocktail (Cat #4693159001, Roche, Basel, Switzerland). Denaturing sample buffer was added, samples were boiled at 95 degrees for 10 minutes. An equal amount of protein lysate was electrophoresed through NuPAGE™ 4 to 12%, Bis-Tris, 1.5 mm, Mini Protein Gels (Invitrogen, Waltham, MA, USA) then transferred to PVDF membranes. The PVDF membrane was blocked with 5% non-fat milk (Sigma-Aldrich, St. Louis, MO, USA) in 1× TTBS. Primary antibodies were incubated with the transferred PVDF membrane in blocking buffer at 4° C. overnight. Secondary antibodies used included goat anti-rabbit IgG (H+L) secondary antibody, HRP (Cat #31460, Invitrogen, Waltham, MA, USA) and goat anti-mouse IgG (H+L) secondary antibody, HRP (Cat #31430, Invitrogen, Waltham, MA, USA). Signal was detected using a Syngene Imaging System.\n9-ING-41 treatment decreases survival factor expression while increasing PD-L1 levels in colorectal cancer cell lines. To elucidate the mechanism behind the differential effects of 9-ING-41 on either colorectal cancer or immune cells in co-culture and cytokine profiling assays, the inventors performed Western blot analyses on tumor and immune cells treated with 9-ING-41 over a 72-hour time course.\nTreating cells from colorectal cancer cell lines with 1 μM 9-ING-41 decreases Surivin, NF-κB p65, and IκBα while increasing PD-L1 levels in, 9-ING-41 treatment of immune cells increases NIK. Western blot analysis of HCT-116 and HT-29 colorectal cancer cells for expression of indicated proteins after increasing durations of 9-ING-41 treatment (0-72 hours). Western blot analysis of TALL-104 T cells for expression of indicated proteins after increasing durations of 9-ING-41 treatment (0-72 hours). […]"}},
  "data": [
    {"molecule": "Cn1cc(C2=C(c3coc4ccc(F)cc34)C(=O)NC2=O)c2cc3c(cc21)OCO3", "note": "[9-ING-41]", "values": [
      {"measurement": "dead cells out of total cells, average, after normalization", "setting": "SW480 tumor cells; 5 μM 9-ING-41, 24-hour co-culture", "result": 33, "unit": "%"},
      {"measurement": "dead cells out of total cells, average, after normalization", "setting": "SW480 tumor cells; 10 μM 9-ING-41, 24-hour co-culture", "result": 37, "unit": "%"},
      {"measurement": "amount of TALL-104 cell-mediated SW480 cell-killing", "setting": "SW480 tumor cells; after treatment, 24 hours", "result": "dose-dependent increase"},
      {"measurement": "T cell (TALL-104) killing of colorectal cancer cells", "setting": "SW480 tumor cells; compared to controls without drug treatment", "result": "significant increase"},
      {"measurement": "tumor cell death in SW480 monocultures treated with drug only", "setting": "SW480 tumor cells; monoculture, no immune cells", "result": "Limited tumor cell death"},
      {"measurement": "TALL-104 cell-mediated cell killing after tumor cell pre-treatment", "setting": "SW480 tumor cells; tumor cells pre-treated 24 hours before co-culture", "result": "sensitized"},
      {"measurement": "IKKβ and Nik", "setting": "[1]; 0-72 hours", "result": "did not change"},
      {"measurement": "PD-L1", "setting": "[1]; as treatment duration increased", "result": "increased"},
      {"measurement": "Survivin, NF-KB, IKBα, pIKBα, and Bcl-2", "setting": "[1]; by the 72-hour timepoint", "result": "decreased"}
    ]}
  ]
}
